# According to ChEMBL document CHEMBL5053513, “Discovery of bilirubin as novel P2X7R antagonist with anti-tumor activity” (Bioorg Med Chem Lett, 2021):
# Active and inactive are the calls of the source. The calls are words filed in the database; no cut-off is given here.
# Key:
# [1] = target: T1, P2X purinoceptor 7 (Homo sapiens) (UniProt Q99572); experiment: Antagonist activity at human P2X7R expressed in human HT-29 cells assessed as reduction in ethidium bromide uptake at 100 uM in presence of BzATP; assay type: cell-based; conditions: filed as antagonist
# T1 sequence (whole entry): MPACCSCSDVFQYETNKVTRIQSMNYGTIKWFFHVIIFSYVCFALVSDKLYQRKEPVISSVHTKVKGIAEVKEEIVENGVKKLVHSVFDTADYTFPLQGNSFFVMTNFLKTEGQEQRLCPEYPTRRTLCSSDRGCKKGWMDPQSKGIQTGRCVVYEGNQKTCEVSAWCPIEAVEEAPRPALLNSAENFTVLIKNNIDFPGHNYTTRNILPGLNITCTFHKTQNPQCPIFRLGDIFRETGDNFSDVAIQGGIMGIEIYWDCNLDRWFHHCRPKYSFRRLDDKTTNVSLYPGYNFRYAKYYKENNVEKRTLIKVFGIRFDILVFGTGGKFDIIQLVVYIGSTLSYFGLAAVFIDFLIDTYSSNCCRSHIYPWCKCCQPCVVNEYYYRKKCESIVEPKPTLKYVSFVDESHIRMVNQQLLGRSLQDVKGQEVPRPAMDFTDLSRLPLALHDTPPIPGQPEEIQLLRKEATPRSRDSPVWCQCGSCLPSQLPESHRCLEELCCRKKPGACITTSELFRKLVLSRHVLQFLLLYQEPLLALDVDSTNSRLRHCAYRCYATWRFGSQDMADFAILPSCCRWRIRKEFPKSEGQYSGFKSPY
# [2] = target: T1, P2X purinoceptor 7 (Homo sapiens); experiment: Antagonist activity at human P2X7R expressed in human RKO cells assessed as reduction in ethidium bromide uptake at 100 uM in presence of BzATP; assay type: cell-based
# [3] = test system: RKO; experiment: Cytotoxicity against human RKO cells assessed as cell growth inhibition at 50 uM after 24 to 72 hrs by MTT assay; assay type: functional, cell-based; conditions: time 24-72 hrs
# [4] = test system: HT-29; experiment: Cytotoxicity against human HT-29 cells assessed as cell growth inhibition at 50 uM after 24 hrs by MTT assay; assay type: functional, cell-based
# [5] = test system: HT-29; experiment: Cytotoxicity against human HT-29 cells assessed as cell growth inhibition at 50 uM after 48 to 72 hrs by MTT assay; assay type: functional, cell-based; conditions: time 48-72 hrs
# [6] = target: T2, P2X purinoceptor 7 (Mus musculus) (UniProt Q9Z1M0); experiment: Antagonist activity at mouse P2X7R expressed in mouse CT26 cells assessed as reduction in ethidium bromide uptake by cells at 100 uM in presence of BzATP; assay type: cell-based
# T2 sequence (whole entry): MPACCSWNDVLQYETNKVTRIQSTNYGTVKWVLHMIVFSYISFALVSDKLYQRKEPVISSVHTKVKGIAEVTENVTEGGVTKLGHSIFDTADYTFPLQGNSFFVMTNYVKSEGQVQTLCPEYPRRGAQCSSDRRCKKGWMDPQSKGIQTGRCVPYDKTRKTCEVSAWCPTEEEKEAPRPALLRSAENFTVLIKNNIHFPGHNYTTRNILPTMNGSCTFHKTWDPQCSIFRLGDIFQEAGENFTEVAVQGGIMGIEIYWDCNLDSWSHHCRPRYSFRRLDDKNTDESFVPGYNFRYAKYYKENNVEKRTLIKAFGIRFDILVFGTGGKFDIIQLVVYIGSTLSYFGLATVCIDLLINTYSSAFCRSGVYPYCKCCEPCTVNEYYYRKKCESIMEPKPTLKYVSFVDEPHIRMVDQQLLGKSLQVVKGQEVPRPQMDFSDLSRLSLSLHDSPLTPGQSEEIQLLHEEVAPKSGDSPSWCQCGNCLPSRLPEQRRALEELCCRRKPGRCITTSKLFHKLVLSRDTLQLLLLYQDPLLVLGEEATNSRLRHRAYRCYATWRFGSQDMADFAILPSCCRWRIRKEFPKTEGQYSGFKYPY
# [7] = test system: HT-29; experiment: Antimigratory activity against human HT-29 cells assessed as reversal of BzATP induced cell migration at 50 uM; assay type: functional, cell-based
# [8] = test system: HUVEC; experiment: Cytotoxicity against HUVEC cells assessed as reduction in cell growth inhibition at 50 uM measured after 24 to 72 hrs by MTT assay; assay type: cell-based; conditions: human, time 24-72 hrs
Activity [1],Activity [2],Activity [6],Structure (SMILES),Activity [3],Activity [4],Activity [5],Activity [7],Activity [8]
Active,inactive,inactive,COc1ccc(CC(=O)NC(N/C(=N/C#N)Nc2cccc3ncccc23)C(C)(C)C)cc1OC (stereo not drawn),inactive,inactive,Active,,
Active,inactive,,CCOc1ccc(-n2c(=O)[nH]c3c(C(N)=O)nc(-c4cc(F)ccc4F)nc32)cc1,inactive,Active,Active,Active,Toxic
